{"source": "paper PMC5175178", "about": "“Development of an in-vivo active reversible butyrylcholinesterase inhibitor” (Scientific Reports, 2016)", "key": {"huBChE": {"target": "T1, huBChE (Homo sapiens, UniProt P06276)", "T1 construct": "made in house", "T1 sequence (P06276 29-602)": "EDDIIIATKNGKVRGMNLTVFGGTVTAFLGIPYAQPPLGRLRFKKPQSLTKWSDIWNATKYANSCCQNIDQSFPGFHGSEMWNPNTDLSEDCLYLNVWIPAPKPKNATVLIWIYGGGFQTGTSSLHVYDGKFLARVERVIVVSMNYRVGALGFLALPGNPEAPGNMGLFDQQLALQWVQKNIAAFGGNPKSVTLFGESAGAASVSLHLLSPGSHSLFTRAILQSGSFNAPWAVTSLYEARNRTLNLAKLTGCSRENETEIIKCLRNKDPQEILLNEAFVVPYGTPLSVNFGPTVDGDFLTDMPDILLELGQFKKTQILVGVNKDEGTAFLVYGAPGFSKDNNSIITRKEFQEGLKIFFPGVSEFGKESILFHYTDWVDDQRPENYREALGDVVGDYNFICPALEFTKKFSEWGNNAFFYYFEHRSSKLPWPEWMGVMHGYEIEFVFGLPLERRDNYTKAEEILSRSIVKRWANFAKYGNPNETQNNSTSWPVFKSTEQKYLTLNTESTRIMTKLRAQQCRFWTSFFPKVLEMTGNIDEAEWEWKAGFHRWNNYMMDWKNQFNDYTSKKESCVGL", "format": "biochemical", "details": "for IC50: head prints no unit, nM, read-out: IC50 ±SEM huBChE"}, "mAChE": {"target": "T2, mAChE (Mus musculus, UniProt P21836)", "T2 construct": "donated by Florian Nachon (IBS, Grenoble)", "T2 sequence (P21836 32-614)": "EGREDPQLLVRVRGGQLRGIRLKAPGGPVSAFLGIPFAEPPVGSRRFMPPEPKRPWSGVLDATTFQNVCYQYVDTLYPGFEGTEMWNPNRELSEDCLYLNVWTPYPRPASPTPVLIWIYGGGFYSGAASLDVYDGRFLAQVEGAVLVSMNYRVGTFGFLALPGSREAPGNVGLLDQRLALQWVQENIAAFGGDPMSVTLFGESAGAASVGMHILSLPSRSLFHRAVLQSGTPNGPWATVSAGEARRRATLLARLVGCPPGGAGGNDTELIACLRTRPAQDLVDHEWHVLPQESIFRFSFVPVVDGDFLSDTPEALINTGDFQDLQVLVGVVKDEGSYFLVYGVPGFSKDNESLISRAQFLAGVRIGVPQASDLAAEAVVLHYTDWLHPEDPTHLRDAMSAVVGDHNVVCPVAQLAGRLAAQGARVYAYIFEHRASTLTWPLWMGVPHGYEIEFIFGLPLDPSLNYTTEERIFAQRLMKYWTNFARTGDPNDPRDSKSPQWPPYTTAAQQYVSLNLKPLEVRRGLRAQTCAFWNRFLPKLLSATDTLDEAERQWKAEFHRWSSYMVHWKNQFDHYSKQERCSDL", "test": "In-vitro inhibitory activity against mAChE, method of Ellman", "format": "biochemical, murine"}, "[1]": {"details": "residual activity at 10 μM, Table 1"}, "[2]": {"details": "residual activity at 10 μM, %RA > 75% was considered as no inhibition, Table 1"}, "[3]": {"details": "residual activity at 10 µM, %RA >75% was considered no inhibition, Supplementary Table 1"}}, "note": "Read-outs that look alike come from different tables or passages of the source."}
{"smiles": "COCCN(CC1CCCN(C2Cc3ccccc3C2)C1)S(=O)(=O)c1ccc2ccccc2c1", "note": "(racemic) [compound 3, (±)-N-((1-(2,3-dihydro-1H-inden-2-yl)piperidin-3-yl)methyl)-N-(2-methoxyethyl)naphthalene-2-sulfonamide]", "values": [{"measurement": "%RA at 10μM ± SEM huBChE", "setting": "huBChE; [1]", "result": "1.47% ± 1.54%"}, {"measurement": "%RA at 10 µM ±SEM mAChE", "setting": "mAChE; [2]", "result": "72% ± 1%"}, {"measurement": "%RA at 10 µM ±SEM mAChE", "setting": "mAChE; [3]", "result": "72% ±1%"}]}
{"smiles": "COCCN(CC1CCCN(C2Cc3ccccc3C2)C1)S(=O)(=O)c1cccc(N)c1", "note": "(racemic) [compound 4, (±)-3-amino-N-((1-(2,3-dihydro-1H-inden-2-yl)piperidin-3-yl)methyl)-N-(2-methoxyethyl)benzenesulfonamide]", "values": [{"measurement": "%RA at 10μM ± SEM huBChE", "setting": "huBChE; [1]", "result": "2.34% ± 0.13%"}, {"measurement": "%RA at 10 µM ±SEM mAChE", "setting": "mAChE; [2]", "result": "90% ± 0.003%"}, {"measurement": "%RA at 10 µM ±SEM mAChE", "setting": "mAChE; [3]", "result": "90% ±0.003%"}]}
{"smiles": "COCCCN(CC1CCCN(Cc2ccccc2)C1)S(=O)(=O)c1ccc2ccccc2c1", "note": "(racemic) [compound 5, (±)-N-((1-benzylpiperidin-3-yl)methyl)-N-(3-methoxypropyl)naphthalene-2-sulfonamide]", "values": [{"measurement": "%RA at 10μM ± SEM huBChE", "setting": "huBChE; [1]", "result": "0.71% ± 0.66%"}, {"measurement": "%RA at 10 µM ±SEM mAChE", "setting": "mAChE; [2]", "result": "95% ± 5%"}, {"measurement": "%RA at 10 µM ±SEM mAChE", "setting": "mAChE; [3]", "result": "95% ±5%"}]}
{"smiles": "O=S(=O)(NCC1CCCN(Cc2ccccc2)C1)c1ccc2ccccc2c1", "note": "(racemic) [compound 7, (±)-N-((1-benzylpiperidin-3-yl)methyl)naphthalene-2-sulfonamide]", "values": [{"measurement": "%RA at 10 µM ±SEM mAChE", "setting": "mAChE; [3]", "result": "78% ±3%"}]}
{"smiles": "CN(CC1CCCN(Cc2ccccc2)C1)S(=O)(=O)c1ccc2ccccc2c1", "note": "(racemic) [compound 8, (±)-N-((1-benzylpiperidin-3-yl)methyl)-N-methylnaphthalene-2-sulfonamide]", "values": [{"measurement": "%RA at 10 µM ±SEM mAChE", "setting": "mAChE; [3]", "result": "82% ±1%"}]}
{"smiles": "COCCN(CC1CCCN(C2Cc3ccccc3C2)C1)S(=O)(=O)c1cccc([N+](=O)[O-])c1", "note": "(racemic) [compound 13, (±)-N-((1-(2,3-dihydro-1H-inden-2-yl)piperidin-3-yl)methyl)-N-(2-methoxyethyl)-3-nitrobenzenesulfonamide]", "values": [{"measurement": "IC50", "setting": "huBChE; Supplementary Table 1", "result": "3610 ± 528", "unit": "nM"}]}
{"smiles": "COCCN(CC1CCCN(C2Cc3ccccc3C2)C1)S(=O)(=O)c1ccccc1", "note": "(racemic) [compound 16, (±)-N-((1-(2,3-dihydro-1H-inden-2-yl)piperidin-3-yl)methyl)-N-(2-methoxyethyl)benzenesulfonamide]", "values": [{"measurement": "IC50", "setting": "huBChE; Supplementary Table 1", "result": "343 ± 5", "unit": "nM"}, {"measurement": "%RA at 10 µM ±SEM mAChE", "setting": "mAChE; [3]", "result": "97% ±4%"}]}
{"smiles": "O=S(=O)(NCC1CCCN(c2nc3ccccc3s2)C1)c1ccc2ccccc2c1", "note": "(racemic) [compound 71, (±)-N-((1-(benzo[d]thiazol-2-yl)piperidin-3-yl)methyl)naphthalene-2-sulfonamide]", "values": [{"measurement": "%RA at 10μM ± SEM huBChE", "setting": "huBChE; residual activity at 10 µM, Supplementary Table 1", "result": "30% ±2%"}]}
{"smiles": "CN(CC1CCCN(Cc2ccc(F)cc2)C1)S(=O)(=O)c1ccc2ccccc2c1", "note": "(racemic) [compound 72, (±)-N-((1-(4-fluorobenzyl)piperidin-3-yl)methyl)-N-methylnaphthalene-2-sulfonamide]", "values": [{"measurement": "%RA at 10 µM ±SEM mAChE", "setting": "mAChE; [3]", "result": "96% ±2%"}]}
{"smiles": "COCCN(CC1CCCN(C2Cc3ccccc3C2)C1)C(=O)c1ccc2ccccc2c1", "note": "(stereo not drawn) [compound 1, reference compound]", "values": [{"measurement": "IC50", "setting": "mAChE; Table 1, read-out: IC50 (nM) ± SEM mAChE", "result": "102000 ± 2500", "unit": "nM"}]}
{"smiles": "COCCN(CC1CCN(Cc2ccccc2)CC1)S(=O)(=O)c1ccc2ccccc2c1", "note": "[compound 75, N-((1-benzylpiperidin-4-yl)methyl)-N-(2-methoxyethyl)naphthalene-2-sulfonamide]", "values": [{"measurement": "%RA at 10 µM ±SEM mAChE", "setting": "mAChE; [3]", "result": "98% ±1%"}]}
{"smiles": "COCCN(CC1CCN(C2Cc3ccccc3C2)CC1)S(=O)(=O)c1ccc2ccccc2c1", "note": "[compound 84, N-((1-(2,3-dihydro-1H-inden-2-yl)piperidin-4-yl)methyl)-N-(2-methoxyethyl)naphthalene-2-sulfonamide]", "values": [{"measurement": "%RA at 10 µM ±SEM mAChE", "setting": "mAChE; [3]", "result": "87% ±3%"}]}
{"smiles": "COCCCN(CC1CCN(C2Cc3ccccc3C2)CC1)S(=O)(=O)c1ccc2ccccc2c1", "note": "[compound 85, N-((1-(2,3-dihydro-1H-inden-2-yl)piperidin-4-yl)methyl)-N-(3-methoxypropyl)naphthalene-2-sulfonamide]", "values": [{"measurement": "%RA at 10 µM ±SEM mAChE", "setting": "mAChE; [3]", "result": "86% ±0.004%"}]}
{"smiles": "O=S(=O)(NCC1CCN(Cc2ccccc2)CC1)c1ccc2ccccc2c1", "note": "[compound 86, N-((1-benzylpiperidin-4-yl)methyl)naphthalene-2-sulfonamide]", "values": [{"measurement": "IC50", "setting": "mAChE", "result": "1780 ± 85", "unit": "nM"}]}
